# Results as given in PubChem BioAssay (NCI).
#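 Results reflect a 48-hour exposure of cells in 96-well plates to compound at five concentrations. Here, GI50 denotes the concentration required for 50% inhibition of growth. TGI is the concentration that stops growth completely.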
# Columns and labels:
# Experiment in all cases: NCI anticancer screen, dose series, 48 h
# [1] = tested on: BT-549 breast
# [2] = tested on: OVCAR-4 ovarian
# [3] = tested on: UACC-62 melanoma
# [4] = tested on: UO-31 renal
# [5] = tested on: A498 renal
# [6] = tested on: DU-145 prostate
# [7] = tested on: LOX IMVI melanoma
# [8] = tested on: HOP-92 NSCLC
# [9] = tested on: HCC-2998 colon
# [10] = tested on: NCI/ADR-RES ovarian
# [11] = tested on: CAKI-1 renal
# [12] = tested on: MDA-MB-435
# [13] = tested on: 786-0 renal
# [14] = tested on: EKVX NSCLC
# [15] = tested on: ACHN renal
# [16] = tested on: T-47D breast
# [17] = tested on: SW-620 colon
# [18] = tested on: PC-3 prostate
# [19] = tested on: SK-MEL-28 melanoma
# [20] = tested on: HL-60(TB) leukemia
# [21] = tested on: KM12 colon
# [22] = tested on: HCT-15 colon
# [23] = tested on: SK-OV-3 ovarian
# [24] = tested on: OVCAR-5 ovarian
# [25] = tested on: NCI-H460 lung
# [26] = tested on: NCI-H23 lung
# [27] = tested on: M14 melanoma
# [28] = tested on: SK-MEL-5 melanoma
# [29] = tested on: OVCAR-8 ovarian
# [30] = tested on: IGROV1 ovarian
# [31] = tested on: SK-MEL-2 melanoma
# [32] = tested on: HOP-62 NSCLC
# [33] = tested on: HS 578T breast
# [34] = tested on: COLO 205 colon
# [35] = tested on: HCT-116 colon
# [36] = tested on: U251 CNS
# [37] = tested on: SF-268 CNS
# [38] = tested on: NCI-H226 lung
# [39] = tested on: NCI-H522 lung
# [40] = tested on: CCRF-CEM leukemia
# [41] = tested on: OVCAR-3 ovarian
# [42] = tested on: K-562 leukemia
# [43] = tested on: A549 NSCLC
# [44] = tested on: MCF7 breast
# [45] = tested on: SF-539 CNS
# [46] = tested on: MOLT-4 leukemia
# [47] = tested on: SF-295 CNS
# [48] = tested on: SNB-19 CNS
# [49] = tested on: SNB-75 CNS
# [50] = tested on: UACC-257 melanoma
# [51] = tested on: SN12C renal
# [52] = tested on: MALME-3M melanoma
# [53] = tested on: RPMI-8226 leukemia
# [54] = tested on: HT29 colon
# [55] = tested on: RXF 393 renal
# [56] = tested on: MDA-MB-231 breast
# [57] = tested on: TK-10 renal
# [58] = tested on: SR leukemia
structure (smiles),measurement,setting,value
COc1ccc2c(CCCc3ccc(Cl)cc3Cl)c3[n+](cc2c1OC)CCc1cc2c(cc1-3)OCO2,GI50,[1],0.365 µM
same,TGI,[1],1.4 µM
same,GI50,[2],0.337 µM
same,TGI,[2],1.59 µM
same,GI50,[3],0.284 µM
same,TGI,[3],1.38 µM
same,GI50,[4],1.58 µM
same,TGI,[4],3.08 µM
same,GI50,[5],1.76 µM
same,TGI,[5],9 µM
same,GI50,[6],0.639 µM
same,TGI,[6],1.96 µM
same,GI50,[7],0.37 µM
same,TGI,[7],1.44 µM
same,GI50,[8],0.228 µM
same,TGI,[8],1.14 µM
same,GI50,[9],0.638 µM
same,TGI,[9],1.95 µM
same,GI50,[10],7.74 µM
same,TGI,[10],54.2 µM
same,GI50,[11],5.1 µM
same,TGI,[11],23.7 µM
same,GI50,[12],0.322 µM
same,TGI,[12],1.31 µM
same,GI50,[13],1.27 µM
same,TGI,[13],2.74 µM
same,GI50,[14],0.467 µM
same,TGI,[14],1.99 µM
same,GI50,[15],1.44 µM
same,TGI,[15],3.15 µM
same,GI50,[16],0.325 µM
same,TGI,[16],1.84 µM
same,GI50,[17],0.383 µM
same,TGI,[17],1.58 µM
same,GI50,[18],0.279 µM
same,TGI,[18],1.24 µM
same,GI50,[19],0.492 µM
same,TGI,[19],1.83 µM
same,GI50,[20],0.23 µM
same,TGI,[20],0.838 µM
same,GI50,[21],0.362 µM
same,TGI,[21],1.48 µM
same,GI50,[22],1.72 µM
same,TGI,[22],3.29 µM
same,GI50,[23],0.873 µM
same,TGI,[23],2.2 µM
same,GI50,[24],1.13 µM
same,TGI,[24],2.62 µM
same,GI50,[25],0.343 µM
same,TGI,[25],1.32 µM
same,GI50,[26],0.327 µM
same,TGI,[26],1.42 µM
same,GI50,[27],0.485 µM
same,TGI,[27],1.88 µM
same,GI50,[28],0.212 µM
same,TGI,[28],0.561 µM
O=C1c2ccn(CCCNC(CO)(CO)CO)c2C(=O)c2c1c(O)c1ccccc1c2O,GI50,[1],43.9 µM
same,TGI,[1],> 90.2 µM
same,GI50,[29],15 µM
same,TGI,[29],36.9 µM
same,GI50,[30],9.27 µM
same,TGI,[30],56.8 µM
same,GI50,[2],29.2 µM
same,TGI,[2],> 51.2 µM
same,GI50,[3],24.6 µM
same,TGI,[3],> 61.3 µM
same,GI50,[31],23.1 µM
same,TGI,[31],68.8 µM
same,GI50,[4],13.4 µM
same,TGI,[4],30.3 µM
same,GI50,[32],2.43 µM
same,TGI,[32],17.9 µM
same,GI50,[33],1.22 µM
same,GI50,[6],11.5 µM
same,TGI,[6],25 µM
same,GI50,[34],13.2 µM
same,TGI,[34],29.4 µM
same,GI50,[7],13.1 µM
same,TGI,[7],29.7 µM
same,GI50,[8],40 µM
same,TGI,[8],> 86.9 µM
same,GI50,[35],1.9 µM
same,TGI,[35],13.9 µM
same,GI50,[36],15.2 µM
same,TGI,[36],36.6 µM
same,GI50,[37],24.2 µM
same,TGI,[37],> 100 µM
same,GI50,[38],60.7 µM
same,TGI,[38],> 100 µM
same,GI50,[39],12.9 µM
same,TGI,[39],46.6 µM
same,GI50,[9],2.52 µM
same,TGI,[9],8.2 µM
same,GI50,[40],10 µM
same,TGI,[40],44 µM
same,GI50,[10],10.7 µM
same,TGI,[10],26.7 µM
same,GI50,[11],16.4 µM
same,TGI,[11],47.1 µM
same,GI50,[12],34.1 µM
same,TGI,[12],> 65.4 µM
same,GI50,[13],7.94 µM
same,TGI,[13],26.9 µM
same,GI50,[41],6.71 µM
same,TGI,[41],21.6 µM
same,GI50,[42],9.36 µM
same,TGI,[42],90.1 µM
same,GI50,[43],16.9 µM
same,TGI,[43],36.8 µM
same,GI50,[14],49.7 µM
same,TGI,[14],> 100 µM
same,GI50,[44],13 µM
same,TGI,[44],33 µM
same,GI50,[15],13.6 µM
same,TGI,[15],28.2 µM
same,GI50,[16],16.4 µM
same,TGI,[16],50.9 µM
same,GI50,[45],11.4 µM
same,TGI,[45],25.6 µM
same,GI50,[17],4.09 µM
same,TGI,[17],18.6 µM
same,GI50,[18],14.6 µM
same,TGI,[18],35.8 µM
same,GI50,[19],51.3 µM
same,TGI,[19],> 100 µM
same,GI50,[21],11.1 µM
same,TGI,[21],25.7 µM
same,GI50,[22],14.2 µM
same,TGI,[22],28.6 µM
same,GI50,[46],2.54 µM
same,TGI,[46],> 37.2 µM
same,GI50,[23],30.8 µM
same,TGI,[23],96.6 µM
same,GI50,[47],15 µM
same,TGI,[47],> 49.8 µM
same,TGI,[24],13.5 µM
same,GI50,[48],36.3 µM
same,TGI,[48],> 100 µM
same,GI50,[25],10.2 µM
same,TGI,[25],29.3 µM
same,GI50,[49],> 75.2 µM
same,TGI,[49],> 100 µM
same,GI50,[50],43.9 µM
same,TGI,[50],> 78.1 µM
same,GI50,[51],3.16 µM
same,TGI,[51],17.9 µM
same,GI50,[52],22.7 µM
same,TGI,[52],74.3 µM
same,GI50,[53],22.3 µM
same,TGI,[53],> 69.7 µM
same,GI50,[54],15.4 µM
same,TGI,[54],> 46.3 µM
same,GI50,[55],24.2 µM
same,TGI,[55],> 61 µM
same,GI50,[26],15.2 µM
same,TGI,[26],30.5 µM
same,GI50,[27],14.1 µM
same,TGI,[27],30.1 µM
same,TGI,[28],0.588 µM
same,GI50,[56],8.39 µM
same,TGI,[56],25.2 µM
same,GI50,[57],1.32 µM
same,TGI,[57],22.6 µM
CC(Cc1ccccc1)N(C)Cc1nc(C2CCC([N+](=O)[O-])O2)no1 (stereo not given),TGI,[29],59.1 µM
same,TGI,[30],25.5 µM
same,TGI,[2],21.3 µM
same,TGI,[3],22.1 µM
same,TGI,[4],20.4 µM
same,TGI,[32],19.7 µM
same,TGI,[33],17.9 µM
same,TGI,[6],24.9 µM
same,TGI,[34],12.9 µM
same,TGI,[7],11.6 µM
same,TGI,[8],51.2 µM
same,TGI,[35],25.3 µM
same,TGI,[36],22.9 µM
same,TGI,[37],> 100 µM
same,TGI,[38],32.4 µM
same,TGI,[9],14.3 µM
same,TGI,[40],44.8 µM
same,TGI,[10],82.5 µM
same,TGI,[12],20.4 µM
same,TGI,[13],24.6 µM
same,TGI,[43],27.4 µM
same,TGI,[14],94.4 µM
same,TGI,[44],15.5 µM
same,TGI,[16],66.1 µM
same,TGI,[45],8.38 µM
same,TGI,[17],14.9 µM
same,TGI,[19],25.6 µM
same,TGI,[21],21 µM
same,TGI,[22],7.07 µM
same,TGI,[46],> 100 µM
same,TGI,[23],84 µM
same,TGI,[47],20.9 µM
same,TGI,[24],29 µM
same,TGI,[48],25.2 µM
same,TGI,[49],23.1 µM
same,TGI,[50],21.2 µM
same,TGI,[51],11 µM
same,TGI,[52],25.6 µM
same,TGI,[53],72.8 µM
same,TGI,[54],11.5 µM
same,TGI,[55],37.6 µM
same,TGI,[26],19.4 µM
same,TGI,[27],19.1 µM
same,TGI,[28],24.3 µM
same,TGI,[58],> 100 µM
same,TGI,[56],9.93 µM
same,TGI,[57],28.4 µM
